Source: article PMC12529164, “Design, Synthesis, Structure–Activity Relationships, and Preliminary Anticancer Properties of Menthol-Modified Coumarin Esters and 3,4-Dihydrocoumarin Derivatives” (ACS Omega, 2025)
Like-named read-outs stand apart in the source and are kept apart here.

How the values were obtained:
[1] = system: HaCaT; experiment: MTT cytotoxicity assay, normal cells; assay type: cell-based; settings: 72 h, human immortal keratinocytes (normal cells); for IC50: HaCaT
Procedure: (§1) The human primary (SW480) and metastatic (SW620) colon cancer, metastatic prostate cancer (PC3), breast adenocarcinoma (MDA-MB-231) and human immortal keratinocyte (HaCaT) cell lines were recruited from the American Type Culture Collection (ATCC). The cells were cultured in the recommended medium according to protocols (RPMI 1640 for PC3, MEM for SW480 and SW620, as well as DMEM for MDA-MB-231 and HaCaT cells) with addition of 10% FBS, penicillin (100 U/mL), and streptomycin (100 μg/mL) and cultured in 37 °C/5% CO2 in a humidified incubator. Then, the cells were passaged at a confluence of 80–90% by a treatment with 0.25% trypsin (Gibco Life Technologies) and used for studies.
(§2) They were added to 96-well plates with seeded normal and cancer cells (1 × 10^4 cells per well) and incubated for 72 h. MTT analysis was performed according to a previous study.

[2] = system: HaCaT; experiment: Annexin V-FITC/PI flow cytometry; assay type: cell-based, human; settings: compound at IC50, 72 h, mean
Procedure: (§3) The apoptotic and necrotic cells treated with derivatives 2b, 4a, 4b were detected using FITC Annexin V Apoptosis Detection Kit I (BD Biosciences Pharmingen). Briefly, cells (2 × 10^5 cells/well) were seeded in 6-well plates in supplemented medium. […] Then cells were harvested, washed, and labeled with Annexin V-FITC and propidium iodide (PI) according to the manufacturer’s protocol. The stained cells were analyzed by flow cytometry. The cells were identified as early apoptotic (Annexin V+/PI−) or late apoptotic/necrotic (Annexin V+/PI+).

[3] = system: PC3; experiment: Annexin V-FITC/PI flow cytometry; assay type: cell-based, human; settings: PC3, compound at IC50, 72 h, mean
Procedure: as §3

[4] = system: SW620; experiment: MTT cytotoxicity assay; assay type: cell-based, human; settings: for SI SW620: SI = IC50 for normal cell line (HaCaT)/IC50 cancer cell line; for IC50: SW-620, MTT, 72 h, human metastatic colon cancer
Procedure: as §1, §2

[5] = system: MDA-MB-231; experiment: MTT cytotoxicity assay; assay type: cell-based, human; settings: for IC50: MDA-MB-231, MTT, 72 h, human breast adenocarcinoma; for SI MDA-MB-231: SI = IC50 for normal cell line (HaCaT)/IC50 cancer cell line
Procedure: as §1, §2

[6] = system: SW480; experiment: MTT cytotoxicity assay; assay type: cell-based, human; settings: for SI SW480: SI = IC50 for normal cell line (HaCaT)/IC50 cancer cell line; for IC50: SW480, MTT, 72 h, human primary colon cancer
Procedure: as §1, §2

[7] = system: PC3; experiment: MTT cytotoxicity assay; assay type: cell-based, human; settings: for IC50: PC-3, MTT, 72 h, human metastatic prostate cancer; for SI PC3: SI = IC50 for normal cell line (HaCaT)/IC50 cancer cell line
Procedure: as §1, §2

[8] = system: IL-6 in HaCaT cells; experiment: Interleukin-6 ELISA; assay type: cell-based, human; settings: compound at IC50, 72 h; for IL-6 concentration: ELISA
Procedure: (§4) The concentration of Interleukin-6 (IL-6) was measured in cell culture supernatant using Interleukin IL-6 High Sensitivity ELISA kit (Diaclon SAS, Besancon Cedex, France). Cells (1 × 10^5 cells/well) were seeded in 12-well plates with medium for 24 h. […] After this incubation, the supernatants were collected and 100 μL of supernatant samples, control solutions and blank were added to precoated ELISA plate with the preceding plotting of the standard curve. Then 50 μL of diluted biotinylated antihuman interleukin-6 antibody was added and incubated at room temperature for 3 h. Afterward, the plate was washed three times and 100 μL streptavidin-HRP solution was added to each well. After 30 min incubation, the plate was washed again three times and 100 μL of tetramethylbenzidine (TMB) solution was added to each well. The plate was incubated for 15 min in the dark. The reaction was stopped by adding 100 μL of H2SO4 solution. The absorbance was estimated using a spectrophotometer at 450 nm (Microplate Spectrophotometer Thermo Scientific Multiskan GO).

[9] = system: IL-6 in PC3 cells; experiment: Interleukin-6 ELISA; assay type: cell-based, human; settings: PC3, compound at IC50, 72 h
Procedure: as §4

[10] = system: tested cancer cell lines (SW480, SW620, PC3, MDA-MB-231); experiment: MTT assay, mean over tested cancer cell lines; assay type: cell-based; settings: Homo sapiens, mean of the four cancer cell lines
Procedure: They were added to 96-well plates with seeded normal and cancer cells (1 × 10^4 cells per well) and incubated for 72 h. MTT analysis was performed according to a previous study. […]

[11] = system: HaCaT; experiment: Trypan blue assay; assay type: cell-based, human; settings: compound at IC50, 72 h; for cell number: mean; for reduction of number of cells: vs control
Procedure: (§5) The total cell count was assessed by trypan blue exclusion dye assay using automated cell counter (Countess Invitrogen). Untreated cells were used as the control. Each experiment was repeated 5 times.

[12] = Trypan blue assay; assay type: cell-based, human; settings: human, HaCaT cells, compound at IC50, 72 h, mean
Procedure: as §5

[13] = system: PC3; experiment: Trypan blue assay; assay type: cell-based, human; settings: PC3, compound at IC50, 72 h
Procedure: as §5

[14] = system: SW620; experiment: Annexin V-FITC/PI flow cytometry; assay type: cell-based, human; settings: SW620, compound at IC50, 72 h, mean
Procedure: as §3

[15] = system: IL-6 in SW620 cells; experiment: Interleukin-6 ELISA; assay type: cell-based, human; settings: SW620, compound at IC50, 72 h
Procedure: as §4

[16] = system: SW620; experiment: Trypan blue assay; assay type: cell-based, human; settings: SW620, compound at IC50, 72 h
Procedure: as §5

[17] = read-out: average IC50 against tested cancer cell lines

Structure (SMILES)	IC50 [1] [µM]	Early apoptosis [%] [2] [%]	Late apoptosis [%] [2] [%]	Necrosis [%] [2] [%]	SI SW620 [4]	IC50 [4] [µM]	IC50 [5] [µM]	SI MDA-MB-231 [5]	SI SW480 [6]	IC50 [6] [µM]	IC50 [7] [µM]	SI PC3 [7]	IL-6 concentration [8] [pg/mL]	IC50 [10, 17] [µM]	cell number [11]	reduction of number of cells [11]	viability at 72 h [12] [%]	other results
COc1cccc2c1OC(=O)C(C(=O)O[C@@H]1C[C@H](C)CC[C@H]1C(C)C)C2P(=O)(c1ccccc1)c1ccccc1 (mixture of isomers) [Compound 4b, (1R,2S,5R)-2-Isopropyl-5-methylcyclohexyl-4-(diphenylphosphoryl)-8-methoxy-2-oxochromane-3-carboxylate]	27.6 ± 3.12	2.55	0.85	0.45	1.39	19.8 ± 0.63	47.6 ± 4.73	0.58	0.73	37.4 ± 2.45	9.9 ± 1.42	2.78	10.5 ± 0.94	28.7	5.23 x106	16.6%	98.3	Early apoptosis [%] [3]: 10.50%; Late apoptosis [%] [3]: 3.90%; Necrosis [%] [3]: 0.20%; reduction of IL-6 concentration ([8]; vs control): did not alter IL-6 secretion; IL-6 concentration ([9]; ELISA): 0.9 ± 0.03 pg/mL; reduction of IL-6 level ([9]; vs control): 79.2%; IC50 ([10]; Table S7, >100 entered as 100, read-out: mean anticancer IC50): 28.7 µM; cell number ([13]; mean): 4.26 x106; viability (%) ([13]; mean): 94%; reduction of number of live cells ([13]; vs control): 35.3%
CCOP(=O)(OCC)c1cc2cccc(OC)c2oc1=O [Compound 2b, Diethyl (8-Methoxy-2-oxo-2H-chromen-3-yl)phosphonate]	> 100	2.60	1.30	0.30	9.8	10.2 ± 1.63	> 100	1	1	> 100	> 100	1	11.3 ± 0.59	> 77.5	5.66 x106	below 10%	94.7	IC50 HaCaT [1]: did not show any cytotoxic effects; Necrosis [%] [14]: 0.60%; increase in interleukin level ([8]; vs control): 10.7%; IL-6 concentration ([15]; ELISA): 2.1 ± 0.22 pg/mL; reduction of IL-6 level ([15]; vs control): 33.5%; cell number ([16]; mean): 2.26 x106; viability (%) ([16]; mean): 98.66%; reduction of number of live cells ([16]; vs control): 36.4%
